In one data set the target is T1, Human GLP-1R (Homo sapiens, UniProt P43220).
T1 construct: expressed in transfected cells
The experiment in a line: GLP-1R agonist activity, HTRF cAMP level test in 293A GFP-GLP-1R cells. Type of data set: cell-based. On the procedure: GLP-1R-mediated agonist activity was determined by cell-based assays using a homogeneous time-resolved fluorescence (i.e., HTRF)-based cAMP detection kit, which measures the level of cAMP in cells. The method was a competitive immunoassay. It enabled direct pharmacological characterization of compounds acting on Gs-coupled receptors in adherent or suspending cells.
The standard curve of native cAMP or unlabeled cAMP produced by cells competed with d2-labeled cAMP red receptors to bind monoclonal anti-cAMP Eu3+ cryptate donors, and the specific signal was inversely proportional to the concentration of cAMP in standard or tested samples.
Human GLP-1R encoding sequence (NCBI reference sequence NP_002053.3) was subcloned into pEGFP-N1 (tsingke), and the cell line stably expressing the receptor was isolated.
The final DMSO concentration in the buffer mixture was determined to be 1% o.
Cells were collected from a T25 tissue culture flask and centrifuged at room temperature at 1000 rpm for 5 minutes. The cell precipitates were then re-suspended in 1 mL of the stimulating buffer. 20 μL sample of cell suspension was counted on a counter STAR IC 1000 to determine the cell viability and the cell count per mL. The remaining cell suspension was then regulated with the stimulating buffer to deliver 2000 living cells per well using a multi-channel pipette. 5 μL of the cell suspension was added to each well of the plate which already contained the compound. The plate was sealed and incubated at 37° C. with 5% CO2 for 30 minutes.
After 30 minutes of incubation, 5 μL of d2-labeled cAMP and 5 μL of anti-cAMP cryptate (both 1:20 diluted in the cell lysis buffer) were added to each well of the plate. The plate was then incubated at room temperature for 60 minutes, and the changes of HTRF signal were read with Tecan Spark reader: […] at 340 nm (excitation)/at 615 nm and 665 nm (emission). Raw data were converted into nM cAMP by interpolation from the cAMP standard curve, and the effect in percentage was determined relative to the saturated concentration of the complete agonist GLP-17˜37 (400 nM) contained in each plate. Determination of EC50 was performed based on the agonist dose-response curve, which was analyzed using a four-parameter logical dose-response equation with a curve fitting program.
The test data presented the results in the form of a geometric mean (EC50s) based on the number of repetition times.

A further data set addresses hERG potassium channel (Homo sapiens, UniProt Q12809). The experiment in a line: Inhibition of hERG potassium channels, whole-cell patch clamp in HEK-hERG cells. The settings on record: HEK293 cells stably expressing hERG (HEK-hERG). On the procedure:
The cell suspension was added to a small petri dish and placed on an inverted microscope stage.
Such a set of pulse programming was repeated every 15 seconds throughout the experiment.

Data set [1] is described as follows: Metabolic stability in (human) liver microsomes. Type of data set: in vitro ADME. The settings on record: pH 7.4, 0.5 mg/mL microsomal protein, 37° C., 0-45 minutes, LC-MS/MS, read-out: LMS(t1/2 min). As to the method:
1. Experimental design: test concentration: […]; control compound: testosterone; culture conditions: cultured at 37° C. for 0, 5, 15, 30, 45 minutes; method of determination: LC-MS/MS; calculation method: T1/2=0.693/K (K is the rate constant of the ln [concentration] vs. incubation time profile), Clint=(0.693/T1/2)×(1/(microsomal protein concentration (0.5 mg/mL)))×scaling factor.
2. Experimental method: 1. preheating 0.1 M K-buffer, […], pH=7.4; 2. test solutions of test compound and reference compound, 500 μM additive solution: 5 μL of 10 mM stock solution was added to 95 μL can; […] and 18.75 μL of 20 Mg/mL liver microsome were added to 479.75 μL of K/Mg buffer; 3. 3×NADPH stock solution (6 mM, 5 mg/mL) was prepared by dissolving NADPH in the buffer solution; 4. 30 μL of 1.5 μM additive solution containing 0.75 mg/mL microsomal solution was distributed to the plates designated for different time points (0, 5, 15, 30, 45 minutes); 5. at 0 min, 150 μL of ACN containing IS was added to the wells of the plate, followed by addition of 15 μL of NADPH stock solution (6 mM, step 3); 6. all other plates were pre-incubated at 37° C. for 5 minutes; 7. adding 15 μL of NADPH stock solution to the plate to start the reaction and timing; 8. 150 μL of ACN containing IS was added to the wells of the corresponding plates to stop the reaction at 5 min, 15 min, 30 min and 45 min, respectively; 9. after quenching, the plates were shaken on a shaker for 10 minutes (600 rpm/min) and then centrifuged at 6000 rpm for 15 minutes; 10. 80 μL of supernatant was transferred from each well to a 96-well sample plate containing 140 μL water for LC/MS analysis.
Detection method: LC-MS/MS-11 (8050), internal standard: tolbutamide; MS conditions: positive ion ESI for testosterone and test compound, and negative ion ESI for tolbutamide; Mobile phases: mobile phase A is 0.1% FA in water, and mobile phase B is 0.1% FA in ACN; Column and specification: ACQUITY UPLC HSS T3 1.8 um 2.1*50 mm.

hERG potassium channel, sequence (Q12809 whole entry): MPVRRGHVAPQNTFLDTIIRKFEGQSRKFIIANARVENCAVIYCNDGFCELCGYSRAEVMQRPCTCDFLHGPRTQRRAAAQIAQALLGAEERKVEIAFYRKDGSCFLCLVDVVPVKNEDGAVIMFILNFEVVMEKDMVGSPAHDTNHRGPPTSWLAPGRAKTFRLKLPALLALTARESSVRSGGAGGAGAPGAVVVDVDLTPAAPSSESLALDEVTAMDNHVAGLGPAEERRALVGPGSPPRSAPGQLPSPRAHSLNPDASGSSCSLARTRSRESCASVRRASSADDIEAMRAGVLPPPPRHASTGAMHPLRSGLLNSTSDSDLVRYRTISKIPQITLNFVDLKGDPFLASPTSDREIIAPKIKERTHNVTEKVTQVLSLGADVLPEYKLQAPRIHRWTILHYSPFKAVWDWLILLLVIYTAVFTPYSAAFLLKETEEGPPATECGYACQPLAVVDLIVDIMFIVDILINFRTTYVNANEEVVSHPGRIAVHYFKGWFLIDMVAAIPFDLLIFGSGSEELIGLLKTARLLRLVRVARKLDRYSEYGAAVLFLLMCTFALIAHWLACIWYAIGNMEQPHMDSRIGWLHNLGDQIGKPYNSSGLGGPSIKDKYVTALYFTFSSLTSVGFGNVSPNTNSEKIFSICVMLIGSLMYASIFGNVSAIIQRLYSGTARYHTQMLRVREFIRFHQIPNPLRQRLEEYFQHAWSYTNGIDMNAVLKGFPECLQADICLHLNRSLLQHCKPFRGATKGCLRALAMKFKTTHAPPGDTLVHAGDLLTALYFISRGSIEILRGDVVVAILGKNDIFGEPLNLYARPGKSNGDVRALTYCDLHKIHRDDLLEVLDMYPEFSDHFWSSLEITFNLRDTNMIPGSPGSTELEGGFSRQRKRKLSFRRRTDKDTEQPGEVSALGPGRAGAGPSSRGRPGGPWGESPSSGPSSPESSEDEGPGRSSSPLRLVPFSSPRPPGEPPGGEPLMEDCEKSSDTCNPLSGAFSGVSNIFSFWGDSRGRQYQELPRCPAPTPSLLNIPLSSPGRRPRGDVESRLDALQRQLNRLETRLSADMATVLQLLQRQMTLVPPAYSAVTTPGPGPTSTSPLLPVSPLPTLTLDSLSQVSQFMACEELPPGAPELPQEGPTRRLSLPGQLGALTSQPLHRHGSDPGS
T1 sequence (P43220 24-463): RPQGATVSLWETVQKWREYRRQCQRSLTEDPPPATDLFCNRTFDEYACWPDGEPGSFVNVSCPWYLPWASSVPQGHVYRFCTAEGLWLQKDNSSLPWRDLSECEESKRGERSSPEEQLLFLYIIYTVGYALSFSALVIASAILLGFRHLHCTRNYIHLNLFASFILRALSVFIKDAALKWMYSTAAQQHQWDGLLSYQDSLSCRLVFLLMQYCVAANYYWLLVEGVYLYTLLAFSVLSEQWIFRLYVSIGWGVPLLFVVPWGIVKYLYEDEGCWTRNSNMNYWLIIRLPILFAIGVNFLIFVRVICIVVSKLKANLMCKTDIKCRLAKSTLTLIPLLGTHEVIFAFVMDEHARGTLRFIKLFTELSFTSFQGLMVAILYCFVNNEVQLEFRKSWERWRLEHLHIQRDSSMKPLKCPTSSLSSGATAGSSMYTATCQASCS

With `CC(=O)c1cc(COc2cccc(C3CCN(Cc4nc5ccc(C(=O)O)cc5n4C[C@@H]4CCO4)CC3)n2)cs1` [Compound 3, (S)-2-((4-(6-((5-acetylthiophen-3-yl)methoxy)pyridin-2-yl)piperidin-1-yl)methyl)-1-(oxetan-2-ylmethyl)-1H-benzo[d]imidazole-6-carboxylic acid], the EC50 on Human GLP-1R worked out at 121 nM.

Compound `O=C(O)c1ccc2nc(CN3CCC(c4cccc(OCc5ccc(-c6cncnc6)s5)n4)CC3)n(C[C@@H]3CCO3)c2c1` [Compound 13] registered an EC50 at Human GLP-1R of 0.47 nM.

Regarding `CC(=O)c1ccc(COc2cccc(C3CCN(Cc4nc5ccc(C(=O)O)cc5n4C[C@@H]4CCO4)CC3)n2)s1` [Compound 1, (S)-2-((4-(6-((5-acetylthiophen-2-yl)methoxy)pyridin-2-yl)piperidin-1-yl)methyl)-1-(oxetan-2-ylmethyl)-1H-benzo[d]imidazole-6-carboxylic acid], on Human GLP-1R, the response was half-maximal at 4.67 nM (EC50). At hERG potassium channel, testing at 1 µM gave an inhibition of 9.82% and the inhibition at 10 µM worked out at 53.8%. In data set [1], the half-life at 1 μM came out at 115 min.

At Human GLP-1R, `N#Cc1ccc(COc2cccc(C3CCN(Cc4nc5ccc(C(=O)O)cc5n4C[C@@H]4CCO4)CC3)n2)s1` [Compound 4, (S)-2-((4-(6-((5-Cyanothiophen-2-yl)methoxy)pyridin-2-yl)piperidin-1-yl)methyl)-1-(oxetan-2-ylmethyl)-1H-benzo[d]imidazole-6-carboxylic acid] gave an EC50 of 1 nM. Moreover, at hERG potassium channel, testing at 1 µM gave an inhibition of 14.2% and the inhibition at 10 µM was determined as 72.2%. For the same compound, the half-life at 1 μM in data set [1] was found to be 132 min.

On Human GLP-1R, `N#Cc1ccc(COc2ccc3c(n2)C2=C(COC3)CN(Cc3nc4ccc(C(=O)O)cc4n3C[C@@H]3CCO3)CC2)s1` [Compound 12, (S)-2-((2-((5-cyanothiophen-2-yl)methoxy)-5,8,10,11-tetrahydro-oxepino[4,3-b:6,5-c′]dipyridin-9(7H)-yl)methyl)-1-(oxetan-2-ylmethyl)-1H-benzo[d]imidazole-6-carboxylic acid] gave an EC50 of 0.5 nM. Besides, in data set [1], the half-life at 1 μM was 59.8 min.

As to `Cc1cc(C#N)sc1COc1cccc(C2CCN(Cc3nc4ccc(C(=O)O)cc4n3C[C@@H]3CCO3)CC2)n1` [Compound 11, (S)-2-((4-(6-((5-cyano-3-methylthiophen-2-yl)methoxy)pyridin-2-yl)piperidin-1-yl)methyl)-1-(oxetan-2-ylmethyl)-1H-benzo[d]imidazole-6-carboxylic acid], at Human GLP-1R, the response was half-maximal at 0.1 nM (EC50).

Take `N#Cc1cc(Cl)c(COc2cccc(C3CCN(Cc4nc5ccc(C(=O)O)cc5n4C[C@@H]4CCO4)CC3)n2)s1` [Compound 7, (S)-2-((4-(6-((3-chloro-5-cyanothiophen-2-yl)methoxy)pyridin-2-yl)piperidin-1-yl)methyl)-1-(oxetan-2-ylmethyl)-1H-benzo[d]imidazole-6-carboxylic acid]: the EC50 at Human GLP-1R amounted to 0.02 nM. For the same compound, the half-life at 1 μM in data set [1] turned out to be 21.2 min.

At Human GLP-1R, `O=C(O)c1ccc2nc(CN3CCC(c4cccc(OCc5ccc(C(F)(F)F)s5)n4)CC3)n(C[C@@H]3CCO3)c2c1` [Compound 9, (S)-1-(oxetan-2-ylmethyl)-2-((4-(6-((5-(trifluoromethyl)thiophen-2-yl)methoxy)pyridin-2-yl)piperidin-1-yl)methyl)-1H-benzo[d]imidazole-6-carboxylic acid] displayed a concentration for a half-maximal effect (EC50) of 0.08 nM.

`CC(=O)c1cc(Cl)c(COc2cccc(C3CCN(Cc4nc5ccc(C(=O)O)cc5n4C[C@@H]4CCO4)CC3)n2)s1` [Compound 5, (S)-2-((4-(6-((5-acetyl-3-chlorothien-2-yl)methoxy)pyridin-2-yl)piperidin-1-yl)methyl)-1-(oxetan-2-ylmethyl)-1H-benzo[d]imidazole-6-carboxylic acid] yielded an EC50 at Human GLP-1R of 0.56 nM. For the same compound, the half-life at 1 μM in data set [1] is 37.3 min.

Consider `O=C(O)c1ccc2nc(CN3CCC(c4cccc(OCc5ccc(C(=O)C6CC6)s5)n4)CC3)n(C[C@@H]3CCO3)c2c1` [Compound 6, (S)-2-((4-(6-((5-(cyclopropanecarbonyl)thiophen-2-yl)methoxy)pyridin-2-yl)piperidin-1-yl)methyl)-1-(oxetan-2-ylmethyl)-1H-benzo[d]imidazole-6-carboxylic acid], for which the EC50 on Human GLP-1R was 0.03 nM.

Take `CC(=O)c1csc(COc2cccc(C3CCN(Cc4nc5ccc(C(=O)O)cc5n4C[C@@H]4CCO4)CC3)n2)c1` [Compound 2, (S)-2-((4-(6-((4-acetylthiophen-2-yl)methoxy)pyridin-2-yl)piperidin-1-yl)methyl)-1-(oxetan-2-ylmethyl)-1H-benzo[d]imidazole-6-carboxylic acid]: a half-maximal response on Human GLP-1R (EC50) required 88.8 nM.

Turning to `O=C(O)c1ccc2nc(CN3CCC(c4cccc(OCc5cc6ccncc6s5)n4)CC3)n(C[C@@H]3CCO3)c2c1` [Compound 10, 1-(oxetan-2-ylmethyl)-2-((4-(6-(thieno[2,3-c]pyridin-2-ylmethoxy)pyridin-2-yl)piperidin-1-yl)methyl)-1H-benzo[d]imidazole-6-carboxylic acid], the midpoint of the response on Human GLP-1R, the EC50, lay at 0.05 nM. Also, the half-life at 1 μM in data set [1] was found to be 22.5 min.

In turn, `N#Cc1sc(COc2cccc(C3CCN(Cc4nc5ccc(C(=O)O)cc5n4C[C@@H]4CCO4)CC3)n2)cc1Cl` [Compound 8, (S)-2-((4-(6-((4-chloro-5-cyanothiophen-2-yl)methoxy)pyridin-2-yl)piperidin-1-yl)methyl)-1-(oxetan-2-ylmethyl)-1H-benzo[d]imidazole-6-carboxylic acid] gave an EC50 at Human GLP-1R of 0.05 nM. In other words, the picomolar range.

For the origin of these results see patent publication US20240208952A1, “THIOPHENE GLP-1 RECEPTOR AGONIST AND USE THEREOF” (priority 2021, published 2024).
